The results in this text go back to PubChem BioAssay (NCI).

Holding throughout (assay): NCI-60 cell line screen, 48 h
Experiment [1] deals with MOLT-4 leukemia.
Experiment [2] has as its system MDA-MB-231 breast.
Experiment [3] has as its system MDA-MB-435.
For experiment [4], the system named is OVCAR-5 ovarian.
Experiment [5] concerns HCC-2998 colon.
The test system of experiment [6] is NCI-H460 lung.
Experiment [7] deals with SNB-19 CNS.
Experiment [8] deals with NCI-H522 lung.
The subject of experiment [9] is HOP-92 NSCLC.
For experiment [10], the system named is SW-620 colon.
Experiment [11] has as its system SF-295 CNS.
Experiment [12] relates to SF-268 CNS.
Experiment [13] concerns M14 melanoma.
The test system of experiment [14] is SK-OV-3 ovarian.
The subject of experiment [15] is LOX IMVI melanoma.
The subject of experiment [16] is T-47D breast.
The test system of experiment [17] is UO-31 renal.
Experiment [18] deals with HT29 colon.
The subject of experiment [19] is A498 renal.
Experiment [20] has as its system TK-10 renal.

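Five concentrations, 48 hours, 96-well plates. TGI: total growth inhibition.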

Turning to `COC1=NC(NC2OCC(O)C(O)C2O)=C(NC(C)=O)CN1C` (stereo not given), the TGI in [1], in experiment [2], in experiment [3], in experiment [4], in experiment [5] and in experiment [6] was greater than 100 µM each time. Further, the TGI in experiment [7], in experiment [8], in experiment [9], in experiment [10], in experiment [11] and in experiment [12] was greater than 100 µM in each case. The TGI in experiment [13], in experiment [14], in experiment [15], in experiment [16], in experiment [17] and in experiment [18] was greater than 100 µM each time. For the same molecule, the TGI in experiment [19] and in [20] was greater than 100 µM in each case.

In the case of `CCOC(=O)c1sc2nc(SC)nc3c2c1N=CN3c1ccccc1Cl`, the TGI in experiment [1], in [2], in [3], in experiment [4], in experiment [5] and in experiment [6] was greater than 100 µM in each case. Besides, the TGI in experiment [7] was greater than 100 µM; in experiment [8], greater than 100 µM; in [9] it was 74.5 µM; in experiment [10] it was greater than 100 µM; in [11], greater than 100 µM; in experiment [12], greater than 100 µM. For the same molecule, the TGI in experiment [13], in [14], in [15], in [16], in [17] and in [18] was greater than 100 µM each time. The TGI is 56.3 µM in [19] and greater than 100 µM in [20].

With `Cc1cc2c(c(C=Nc3ccc([N+](=O)[O-])cc3)c1)OC1(C=C2)Oc2ccccc2C(=O)N1C` (stereo not given), the TGI in experiment [1] is 35 µM; in experiment [2], 45 µM; in experiment [3], greater than 100 µM; in experiment [4] it was 82.5 µM; in [5], 36.2 µM; in [6] it was 42.7 µM. For the same molecule, the TGI in experiment [7] is greater than 100 µM; in experiment [8] it was greater than 100 µM; in [9], 50.9 µM; in experiment [10], 81.1 µM; in experiment [11], 77.1 µM; in [12], 51.2 µM. The TGI is 57.8 µM in [13]; 59.8 µM in experiment [14]; 27.1 µM in [15]; 26.9 µM in experiment [16]; 42.3 µM in experiment [17]; 36.3 µM in experiment [18]. Further, the TGI in [19] was found to be 61.6 µM; in experiment [20], 74.2 µM.

For the molecule `CC(C)[Si](OC1=C(C(=O)Nc2ccccc2Cl)CCCCC1)(C(C)C)C(C)C`, the TGI in experiment [1], in experiment [2], in experiment [3], in experiment [4], in experiment [5] and in experiment [6] was greater than 100 µM in each case. The TGI in [7], in [8], in experiment [9], in [10], in experiment [11] and in [12] was greater than 100 µM throughout. Besides, the TGI in experiment [13], in [14], in experiment [15], in experiment [16], in experiment [17] and in experiment [18] was greater than 100 µM each time. Also, the TGI in [19] and in [20] was greater than 100 µM each time.

Turning to `Cc1cc2c(cc1Cl)SC(N/N=C(\N)c1ccc(Cl)cc1)=NS2(=O)=O`, the TGI in experiment [1], in experiment [2], in [3], in experiment [4], in experiment [5] and in experiment [6] was greater than 100 µM throughout. In addition, the TGI in experiment [7] is greater than 100 µM; in experiment [8], greater than 100 µM; in [9], 58.9 µM; in experiment [10], greater than 100 µM; in experiment [11], greater than 100 µM; in experiment [12], greater than 100 µM. Besides, the TGI in [13], in experiment [14], in experiment [15], in experiment [16], in experiment [17] and in [18] was greater than 100 µM in each case. The results for the TGI in [19] and in experiment [20] were 72.9 µM and greater than 100 µM, respectively.

`C=C1C[C@@H](O)[C@@H](Br)C(C)(C)[C@]12CCC(C)(Cl)C(Br)C2` (stereo not given in full): the TGI was greater than 100 µM in [1]; greater than 85.2 µM in experiment [2]; greater than 71.2 µM in [3]; 19.8 µM in experiment [4]; 35.3 µM in [5]; greater than 84.5 µM in experiment [6]. For the same molecule, the TGI was greater than 31.6 µM in [7]; 44.1 µM in [8]; greater than 73.6 µM in [9]; greater than 100 µM in experiment [10]; greater than 85.3 µM in experiment [11]; greater than 77.4 µM in experiment [12]. The TGI in experiment [13] was greater than 100 µM; in [14], greater than 100 µM; in experiment [15], 49.5 µM; in experiment [16] it was greater than 100 µM; in experiment [17], greater than 100 µM; in experiment [18] it was greater than 100 µM. The figures for the TGI in experiment [19] and in experiment [20] were 97.5 µM and greater than 100 µM, respectively.

`NS(=O)(=O)c1ccc(NNc2c3ccccc3nc3ccccc23)cc1`: the TGI was 19.2 µM in experiment [1]; 25.9 µM in experiment [2]; 17 µM in experiment [3]; 17.5 µM in experiment [4]; 17.6 µM in experiment [5]; 21.3 µM in experiment [6]. For the same molecule, the TGI came out at 25.7 µM in experiment [7]; 16.4 µM in experiment [8]; 23.4 µM in experiment [9]; 16.6 µM in experiment [10]; 19.8 µM in [11]; 17.7 µM in [12]. Further, the TGI in experiment [13] stood at 15.9 µM; in [14], 24.5 µM; in [15] it was 14.5 µM; in experiment [16] it was 20.4 µM; in experiment [17] it was 18.1 µM; in experiment [18], 13.6 µM. Also, the TGI in experiment [19] was found to be 53.9 µM; in [20] it was 26.4 µM.

Take `CCOC(=O)C(Cc1c2ccccc2cc2ccccc12)(NC(C)=O)C(=O)OCC`: the TGI was greater than 90.1 µM in experiment [1]; greater than 100 µM in experiment [2]; greater than 100 µM in experiment [3]; greater than 100 µM in experiment [4]; greater than 100 µM in experiment [5]; greater than 100 µM in experiment [6]. Further, the TGI in experiment [7] was greater than 100 µM; in experiment [8], greater than 100 µM; in experiment [9], 83.1 µM; in [10] it was greater than 100 µM; in experiment [11], greater than 100 µM; in experiment [12], greater than 100 µM. Moreover, the TGI in experiment [13], in [14], in [15], in experiment [16], in experiment [17] and in [18] was greater than 100 µM each time. Also, the TGI in experiment [19] and in [20] was greater than 100 µM each time.

Turning to `O=C1CCCC2=C(N1)C(=O)C=CC2=O`, the TGI in experiment [1] is 31.5 µM; in experiment [2] it was 33.5 µM; in [3], 32.7 µM; in experiment [4] it was 48.6 µM; in experiment [5] it was greater than 100 µM; in experiment [6], 63.8 µM. Further, the TGI in experiment [7] was found to be 61 µM; in experiment [8], 34.8 µM; in experiment [9], 38.8 µM; in [10], 37.9 µM; in [11] it was 56.4 µM; in experiment [12], 67.9 µM. Further, the TGI is 55.1 µM in experiment [13]; greater than 100 µM in experiment [14]; greater than 65.8 µM in experiment [15]; 52.7 µM in [16]; 57.9 µM in experiment [17]; 59 µM in experiment [18]. The TGI in [19] is greater than 70.4 µM; in experiment [20] it was 56.9 µM.

Turning to `COc1ccc(N=C2C(=O)C3=C(OC(C)(C)CC3)c3ccccc32)cc1`, the TGI in experiment [1] was 5.29 µM; in experiment [2] it was 5.44 µM; in experiment [3], 0.502 µM; in experiment [4], 6.14 µM; in experiment [5], 3.96 µM; in [6] it was 5.72 µM. The TGI in experiment [7] worked out at 2.36 µM; in experiment [8], 2.45 µM; in [9], 22.2 µM; in [10] it was 1.56 µM; in experiment [11] it was 1.56 µM; in experiment [12], 10.7 µM. For the same molecule, the TGI in experiment [13] is 1.5 µM; in experiment [14], 4.4 µM; in [15], 10.3 µM; in experiment [16], 2.2 µM; in experiment [17] it was 1.69 µM; in [18] it was 1.57 µM. The TGI in experiment [19] worked out at 14.7 µM; in experiment [20], 7.93 µM.

`O=C(c1cccc(OCc2ccccc2)c1OCc1ccccc1)N1CCSC1=S`: the TGI was 38.7 µM in [1]; greater than 78.2 µM in [2]; greater than 100 µM in [3]; greater than 100 µM in experiment [4]; greater than 100 µM in [5]; greater than 100 µM in [6]. The TGI is greater than 100 µM in experiment [7]; greater than 58.1 µM in [8]; greater than 100 µM in experiment [9]; greater than 100 µM in [10]; greater than 100 µM in [11]; greater than 52.8 µM in [12]. In addition, the TGI in [13] is greater than 100 µM; in experiment [14], greater than 100 µM; in experiment [15], greater than 100 µM; in experiment [16] it was greater than 100 µM; in [17] it was 97.2 µM; in experiment [18], greater than 100 µM. In addition, the TGI in experiment [19] was 80.1 µM; in [20], greater than 100 µM.

For the molecule `CC1=C2C(=O)OCC23C=COC3(C)O1` (stereo not given), the TGI in experiment [1] was greater than 100 µM; in experiment [2], greater than 100 µM; in experiment [3], 53.3 µM; in [4], greater than 100 µM; in experiment [5], greater than 100 µM; in experiment [6], greater than 100 µM. Moreover, the TGI in [7] was greater than 100 µM; in experiment [8], 78.9 µM; in [9] it was greater than 100 µM; in experiment [10] it was greater than 100 µM; in experiment [11], greater than 100 µM; in experiment [12], greater than 100 µM. The TGI in experiment [13] was 85.5 µM; in experiment [14], greater than 100 µM; in experiment [15], greater than 100 µM; in experiment [16], greater than 100 µM; in experiment [17], greater than 100 µM; in experiment [18] it was greater than 100 µM. The TGI in [19] and in experiment [20] was greater than 100 µM throughout.

For `COC(=O)[C@@H]1C[C@H]([Se]c2ccccc2)CN1S(=O)(=O)c1ccc(C)cc1`, the TGI in experiment [1], in experiment [2], in experiment [3], in experiment [4], in [5] and in experiment [6] was greater than 100 µM throughout. The TGI in experiment [7], in experiment [8], in [9], in experiment [10], in experiment [11] and in [12] was greater than 100 µM each time. Besides, the TGI in [13], in experiment [14], in experiment [15], in experiment [16], in experiment [17] and in experiment [18] was greater than 100 µM throughout. In addition, the TGI in experiment [19] and in experiment [20] was greater than 100 µM in each case.
